In patent publication US20080064663A1, “Melt processing of phosphoroamido(di)thioate insecticides” (priority 2006, published 2008):

Assay: Processing of acephate melt in oxygen free atmosphere: degradation
Type: physicochemical
Description: In some embodiments, the acephate-containing composition can be processed for more than 30 minutes without substantially any detectable degradation.

## COP(=O)(NC(C)=O)SC (centres unmarked) [acephate]
After processing in molten state at 90° C. to 100° C. for 15 to 30 minutes under an effectively oxygen free atmosphere
  reduction of the acephate stability during storage: without any reduction
Molten state at 90° C. to 100° C. for 15 minutes to 30 minutes under an effectively oxygen free atmosphere
  degradation of the acephate processed in a molten state: without substantial or detectable degradation
